Measurements reported in patent US20070196478A1, “ANTIVIRAL COMPOSITIONS” (priority 1999, published 2007).

Assay: thermal stability of the antiviral compound after melt extrusion (HPLC)
Type: physicochemical
Details: melt extrudate with HPMC 2910 5 mPa·s, 70° C. to […] C.
From the text: The melt extrudate was milled and fractions with particle size below 150 μm (condition I in point 6) and between 500 and 850 μm (condition II in point 6) were collected.

Cc1cc(C)c(Nc2ccnc(Nc3ccc(C#N)cc3)n2)c(C)c1 [Compound 17 of formula (I-A), 4-[[4-[(2,4,6-trimethylphenyl)amino]-2-pyrimidinyl]amino]benzonitrile]
degradation of the antiviral compound after melt extrusion: No degradation
